For data set [1] the following is noted: cited from earlier work.
The nature of data set [2]: IMPAACT P1066: safety in HIV-1 infected pediatric patients. Type of data set: in vivo, human. The source says: Raltegravir has been studied in 126 antiretroviral treatment-experienced HIV-1 infected pediatric patients 2 through 18 years of age, in combination with other antiretroviral agents in IMPAACT P1066. Of the 126 patients, 96 received only the final recommended dose through at least 24 weeks.

The mark [3] stands for this setting: laboratory abnormality, pediatric patients.

With `Cc1nnc(C(=O)NC(C)(C)c2nc(C(=O)NCc3ccc(F)cc3)c([O-])c(=O)n2C)o1.[K+]` [Raltegravir potassium, N-[(4-Fluorophenyl)methyl]-1,6-dihydro-5-hydroxy-1-methyl-2-[1-methyl-1-[[(5-methyl-1,3,4-oxadiazol-2-yl)carbonyl]amino]ethyl]-6-oxo-4-pyrimidinecarboxamide monopotassium salt], in data set [1] (acetonitrile), the solubility in acetonitrile result is given as “very slightly soluble”. Besides, in data set [1] (ethanol), the solubility in ethanol entry is “very slightly soluble”. The solubility in isopropanol result in data set [1] (isopropanol) is recorded as “insoluble”. Also, the solubility in methanol result in data set [1] (methanol) is given as “slightly soluble”. Further, in data set [1] (water), the solubility in water entry was “soluble”.
As for `Cc1nnc(C(=O)NC(C)(C)c2nc(C(=O)NCc3ccc(F)cc3)c(O)c(=O)n2C)o1` [Raltegravir], in data set [2] (setting [3]), the “ALT increased, Grade 3” value was 1.1%; the “AST increased, Grade 3” value came to 1.1%; the “AST increased, Grade 4” value worked out at 1.1%; the “GGT increased, Grade 3” value is 1.1%. Also, in data set [2] (setting [3]), the “bilirubin increased, Grade 3” value was 1.1%; the “creatinine increased, Grade 3” value turned out to be 1.1%; the “glucose abnormal, Grade 3” value is reported as 1.1%; the “glucose decreased, Grade 3” value worked out at 1.1%. In data set [2] (setting [3]), the “magnesium decreased, Grade 3” value was 1.1% and the “neutrophil count decreased, Grade 4” value is listed as 1.1%. Also, in data set [2] (laboratory abnormality, pediatric patients 2 through 18 years), the “neutrophil count decreased, Grade 3” value was 7.4%. Further, in data set [2] (pediatric patients), the “Grade 3 or higher adverse reactions (psychomotor hyperactivity, abnormal behavior, insomnia)” value is listed as “one patient”; the “frequency, type and severity of drug related adverse reactions” value is given as “comparable to those observed in adults”; the “serious Grade 2 possibly drug related allergic rash” value is listed as “one”.

The values above are taken from patent publication US20140242178A1, “TASTE-MASKED FORMULATIONS OF RALTEGRAVIR” (priority 2011, published 2014).
